# US4971967A, “Quinolinecarboxylic acid derivatives, antibacterial compositions and use” (Kanebo Ltd, priority 1989, dated 1990)
# Like-named read-outs stand apart in the source and are kept apart here.
# Columns and labels:
# Shigella sonnei EW-33 = test: Antibacterial activity (MIC), Shigella sonnei EW-33; assay type: cell-based; conditions: Shigella sonnei, EW33, Shigella sonnei EW-33, Gram -; read-out: Minimum inhibitory concentration (MIC)
# Procedure, shortened: (§1)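 Dissolve compound in 0.1 N aqueous sodium hydroxide or sterilized distilled water to 5000 μg/ml; dilute to a 1000 μg/ml standard; measure MIC as prescribed by the Japan Society of Chemotherapy.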
# [1] = tested on: Staphylococcus aureus IID 803; test: Effect on treatment of general infectious disease, S. aureus IID 803 (Experiment 3); assay type: in vivo, ddY male mice infected with Staphylococcus aureus; conditions: IID803, 168 h, oral, 1 h after i.p. infection, 5.0×10^7 CFU/mouse, survival after one week
# Protocol: Staphylococcus aureus IID 803 (5.0×10^7 CFU/mouse)
# (§2) The test microorganisms were subjected to standing culture in Trypto-Soya Agar "Nissui" (made by Nissui Seiyaku K.K., Japan) at 37° C. for 16 to 18 hours. The culture was then diluted with PBS (Dulbecco's phosphate buffered saline) and mixed with an equivalent amount of 10% (w/v) Mucin (BACTO MUCIN BACTERIOLOGICAL, made by Difco Co.) to prepare a microorganism solution. The thus prepared microorganism solution (0.5 ml each) was intraperitoneally inoculated to ddY male mice (5 weeks age, weighing 25-28 g, 5 mice in each group), to infect the animals. One hour after the infection, the compound (A) or (J) of the present invention or the known compound (X) suspended in 1% (w/v) aqueous gum arabic or the known compound (Y) dissolved in sterilized distilled water was orally adiministered to mice.
# (§3) The mice were daily observed for one week, and from the survival number of mice after one week, the 50% effective dose (ED50) was calculated by Weil method.
# Proteus vulgaris OX-19 = test: Antibacterial activity (MIC), Proteus vulgaris OX-19; assay type: cell-based; conditions: OX19; Proteus vulgaris OX-19, Gram -; read-out: Minimum inhibitory concentration (MIC)
# Procedure, shortened: as §1
# [2] = tested on: Staphylococcus epidermidis IAM-1296; test: Antibacterial activity (MIC), S. epidermidis IAM-1296; assay type: cell-based; conditions: Staphylococcus epidermidis, IAM1296, Staphylococcus epidermidis IAM-1296, Gram +; read-out: Minimum inhibitory concentration (MIC)
# Procedure, shortened: as §1
# [3] = tested on: Proteus mirabilis IFO 3849; test: Antibacterial activity (MIC), Proteus mirabilis IFO 3849; assay type: cell-based; conditions: IFO3849; Proteus mirabilis IFO 3849, Gram -; read-out: Minimum inhibitory concentration (MIC)
# Procedure, shortened: as §1
# Enterobacter cloacae 963 = test: Antibacterial activity (MIC), Enterobacter cloacae 963; assay type: cell-based; conditions: Enterobacter cloacae, 963, Enterobacter cloacae 963, Gram -; read-out: Minimum inhibitory concentration (MIC)
# Procedure, shortened: as §1
# [4] = tested on: Micrococcus luteus ATCC 9341; test: Antibacterial activity (MIC), Micrococcus luteus ATCC 9341; assay type: cell-based; conditions: ATCC9341; Micrococcus luteus ATCC 9341, Gram +; read-out: Minimum inhibitory concentration (MIC)
# Procedure, shortened: as §1
# [5] = tested on: Escherichia coli NIHJ JC-2; test: Antibacterial activity (MIC), E. coli NIHJ JC-2; assay type: cell-based; conditions: NIHJJC2; Escherichia coli NIHJ JC-2, Gram -; read-out: Minimum inhibitory concentration (MIC)
# Procedure, shortened: as §1
# [6] = tested on: Klebsiella pneumoniae PCI-602; test: Antibacterial activity (MIC), Klebsiella pneumoniae PCI-602; assay type: cell-based; conditions: PCI602; Klebsiella pneumoniae PCI-602, Gram -; read-out: Minimum inhibitory concentration (MIC)
# Procedure, shortened: as §1
# [7] = tested on: Pseudomonas aeruginosa NCTC 10490; test: Antibacterial activity (MIC), P. aeruginosa NCTC 10490; assay type: cell-based; conditions: Pseudomonas aeruginosa, NCTC10490, Pseudomonas aeruginosa NCTC 10490, Gram -; read-out: Minimum inhibitory concentration (MIC)
# Procedure, shortened: as §1
# [8] = tested on: Bacillus subtilis ATCC 6633; test: Antibacterial activity (MIC), Bacillus subtilis ATCC 6633; assay type: cell-based
# Procedure, shortened: as §1
# [9] = tested on: Serratia marcescens IAM 1184; test: Antibacterial activity (MIC), Serratia marcescens IAM 1184; assay type: cell-based; conditions: Serratia marcescens, IAM1184, Serratia marcescens IAM 1184, Gram -; read-out: Minimum inhibitory concentration (MIC)
# Procedure, shortened: as §1
# [10] = tested on: Staphylococcus aureus FDA 209P JC-1; test: Antibacterial activity (MIC), S. aureus FDA 209P JC-1; assay type: cell-based; conditions: FDA209P, read-out: Minimum inhibitory concentration (MIC)
# Procedure, shortened: as §1
# [11] = tested on: Citrobacter freundii NIHJ 10018-68; test: Antibacterial activity (MIC), Citrobacter freundii NIHJ 10018-68; assay type: cell-based; conditions: Citrobacter freundii, NIHJ10018, Citrobacter freundii NIHJ 10018-68, Gram -; read-out: Minimum inhibitory concentration (MIC)
# Procedure, shortened: as §1
# [12] = tested on: Streptococcus faecalis IID 682; test: Antibacterial activity (MIC), Streptococcus faecalis IID 682; assay type: cell-based; conditions: Enterococcus faecalis, IID682, Streptococcus faecalis IID 682, Gram +; read-out: Minimum inhibitory concentration (MIC)
# Procedure, shortened: as §1
# [13] = tested on: Enterobacter aerogenes ATCC 13048; test: Antibacterial activity (MIC), Enterobacter aerogenes ATCC 13048; assay type: cell-based; conditions: Klebsiella aerogenes, ATCC13048; Enterobacter aerogenes ATCC 13048, Gram -; read-out: Minimum inhibitory concentration (MIC)
# Procedure, shortened: as §1
# infection = test: Protective effects against infection (Experiments 3 and 4); assay type: in vivo, ddY male mice; conditions: result in words
# Protocol: as §2, §3
# The procedure of Experiment 3 was repeated except that ddY male mice weighing 24 to 28 g were employed.
# [14] = tested on: Staphylococcus aureus IID 803; test: Antibacterial activity (MIC), S. aureus IID 803; assay type: cell-based
# Procedure, shortened: as §1
# [15] = tested on: Pseudomonas aeruginosa IFO 3445; test: Antibacterial activity (MIC), P. aeruginosa IFO 3445; assay type: cell-based; conditions: Pseudomonas aeruginosa, IFO3445, Pseudomonas aeruginosa IFO 3445, Gram -; read-out: Minimum inhibitory concentration (MIC)
# Procedure, shortened: as §1
Compound,MIC (Shigella sonnei EW-33) [µg/mL],ED50 [1] [mg/kg],MIC (Proteus vulgaris OX-19) [µg/mL],MIC [2] [µg/mL],MIC [3] [µg/mL],MIC (Enterobacter cloacae 963) [µg/mL],MIC [4] [µg/mL],MIC [5] [µg/mL],MIC [6] [µg/mL],MIC [7] [µg/mL],MIC [9] [µg/mL],MIC [11] [µg/mL],MIC [12] [µg/mL],MIC [13] [µg/mL],protective effects against infection (infection),MIC [15] [µg/mL],further results
"CN1CCN(c2c(F)cc3c(=O)c(C(=O)O)c4scc5n4c3c2N(C)C5)CC1 [Compound (A), 9,1-(Methylimino)methano-7-fluoro-8-(4-methyl-1-piperazinyl)-5-oxo-5H-thiazolo[3,2-a]quinoline-4-carboxylic acid]",0.025,5.8,0.0125,0.05,0.2,0.05,0.39,0.05,0.006,0.2,0.2,0.2,0.1,0.05,excellent protective effects against infection,0.39,"Minimum inhibitory concentration (MIC) ([8]; Bacillus subtilis ATCC 6633, Gram +): 0.006 µg/mL; MIC ([10]; Staphylococcus aureus FDA 209P JC-1, Gram +): 0.05 µg/mL; MIC ([14]; IID803, Staphylococcus aureus IID 803, Gram +, read-out: Minimum inhibitory concentration (MIC)): 0.05 µg/mL"
"CCN1CCN(c2c(F)cc3c(=O)c(C(=O)O)c4scc5n4c3c2N(C)C5)CC1 [Compound (J), 9,1-(Methylimino)methano-7-fluoro-8-(4-ethyl-1-piperazinyl)-5-oxo-5H-thiazolo[3,2-a]quinoline-4-carboxylic acid]",0.05,5.8,0.025,0.1,0.39,0.1,0.39,0.1,0.006,0.39,0.39,0.39,0.1,0.1,excellent protective effects against infection,0.78,"MIC ([8]; Bacillus subtilis, ATCC6633, Bacillus subtilis ATCC 6633, Gram +, read-out: Minimum inhibitory concentration (MIC)): 0.025 µg/mL; MIC ([10]; Staphylococcus aureus): 0.05 µg/mL; MIC ([14]; Staphylococcus aureus, IID803, read-out: Minimum inhibitory concentration (MIC)): 0.05 µg/mL"
